Experimental data taken from ChEMBL document CHEMBL4229536, “In vitro and in vivo pharmacokinetic and pharmacodynamic study of MBRI-001, a deuterium-substituted plinabulin derivative as a potent anti-cancer agent” (Bioorg Med Chem, 2018).

What was measured:
Mus musculus [1] = experiment: Toxicity in nude mouse xenografted with human NCI-H460 cells assessed as death at 25 to 100 mg/kg, po qd for 14 consecutive days; assay type: organism-based; conditions: in vivo
Mus musculus [2] = experiment: Toxicity in Balb/c mouse assessed as mortality at 20 to 40 mg/kg, iv administered three times in a day every 2 days for 15 consecutive days; assay type: organism-based; conditions: in vivo, 48 h
[3] = Stability in rat plasma at 1 uM after 5 mins by LC-MS/MS analysis; assay type: ADME, cell-free; conditions: read-out: Stability
[4] = Stability in rat plasma at 1 uM after 10 mins by LC-MS/MS analysis; assay type: ADME, cell-free; conditions: read-out: Stability
[5] = Stability in rat plasma at 1 uM after 20 mins by LC-MS/MS analysis; assay type: ADME, cell-free; conditions: read-out: Stability
[6] = Stability in rat plasma at 1 uM after 40 mins by LC-MS/MS analysis; assay type: ADME, cell-free; conditions: read-out: Stability
[7] = Stability in rat plasma at 1 uM after 60 mins by LC-MS/MS analysis; assay type: ADME, cell-free; conditions: read-out: Stability
[8] = Stability in rat plasma at 1 uM after 90 mins by LC-MS/MS analysis; assay type: ADME, cell-free; conditions: read-out: Stability
[9] = Stability in rat plasma at 1 uM after 120 mins by LC-MS/MS analysis; assay type: ADME, cell-free; conditions: read-out: Stability
[10] = Stability in rat liver microsomes at 50 uM after 5 mins in presence of NADPH by LC-MS/MS analysis; assay type: ADME, microsome; conditions: microsomes, 5 min, 50 µM
[11] = Stability in rat liver microsomes at 50 uM after 10 mins in presence of NADPH by LC-MS/MS analysis; assay type: ADME, microsome; conditions: microsomes, 10 min, 50 µM
[12] = Stability in rat liver microsomes at 50 uM after 20 mins in presence of NADPH by LC-MS/MS analysis; assay type: ADME, microsome; conditions: read-out: Stability
[13] = Stability in rat liver microsomes at 50 uM after 40 mins in presence of NADPH by LC-MS/MS analysis; assay type: ADME, microsome; conditions: read-out: Stability
[14] = Stability in rat liver microsomes at 50 uM after 60 mins in presence of NADPH by LC-MS/MS analysis; assay type: ADME, microsome; conditions: read-out: Stability
[15] = Stability in rat liver microsomes at 50 uM after 90 mins in presence of NADPH by LC-MS/MS analysis; assay type: ADME, microsome; conditions: read-out: Stability
[16] = Stability in rat liver microsomes at 50 uM after 120 mins in presence of NADPH by LC-MS/MS analysis; assay type: ADME, microsome; conditions: read-out: Stability
[17] = Stability in rat liver microsomes at 50 uM after 150 mins in presence of NADPH by LC-MS/MS analysis; assay type: ADME, microsome; conditions: read-out: Stability
[18] = Stability in rat liver microsomes at 50 uM after 210 mins in presence of NADPH by LC-MS/MS analysis; assay type: ADME, microsome; conditions: microsomes, 3.5 h, 50 µM
[19] = Stability in rat liver microsomes at 50 uM after 270 mins in presence of NADPH by LC-MS/MS analysis; assay type: ADME, microsome; conditions: 4.5 h
[20] = Half life in rat liver microsomes at 50 uM in presence of NADPH by LC-MS/MS analysis; assay type: ADME, microsome
[21] = Clearance in rat liver microsomes at 50 uM in presence of NADPH by LC-MS/MS analysis; assay type: ADME, microsome; conditions: read-out: CLH
Cytochrome P450 1A2 = target: T1, Cytochrome P450 1A2 (Homo sapiens, UniProt P05177); experiment: Inhibition of CYP1A2 in human liver microsomes preincubated for 10 mins followed by NADPH addition measured after 10 mins by LC-MS/MS analysis; assay type: ADME
T1 sequence (P05177 whole entry): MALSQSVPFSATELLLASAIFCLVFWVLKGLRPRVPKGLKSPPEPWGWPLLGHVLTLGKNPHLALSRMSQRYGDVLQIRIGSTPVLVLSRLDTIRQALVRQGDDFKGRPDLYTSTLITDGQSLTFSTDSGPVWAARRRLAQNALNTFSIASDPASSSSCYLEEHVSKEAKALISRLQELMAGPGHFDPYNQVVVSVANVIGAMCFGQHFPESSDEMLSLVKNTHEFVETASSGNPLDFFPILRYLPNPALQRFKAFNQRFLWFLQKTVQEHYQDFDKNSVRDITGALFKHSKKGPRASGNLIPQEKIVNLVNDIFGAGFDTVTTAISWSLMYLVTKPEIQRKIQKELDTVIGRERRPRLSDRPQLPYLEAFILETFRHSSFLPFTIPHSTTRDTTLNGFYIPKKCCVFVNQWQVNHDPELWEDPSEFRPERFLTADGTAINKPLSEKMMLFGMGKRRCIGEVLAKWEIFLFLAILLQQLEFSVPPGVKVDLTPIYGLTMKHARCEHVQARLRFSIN

Cytochrome P450 2C9 = Cytochrome P450 2C9 (Homo sapiens, UniProt P11712); experiment: Inhibition of CYP2C9 in human liver microsomes preincubated for 10 mins followed by NADPH addition measured after 10 mins by LC-MS/MS analysis; assay type: ADME
Cytochrome P450 2C19 = Cytochrome P450 2C19 (Homo sapiens, UniProt P33261); experiment: Inhibition of CYP2C19 in human liver microsomes preincubated for 10 mins followed by NADPH addition measured after 10 mins by LC-MS/MS analysis; assay type: ADME
Cytochrome P450 2D6 = Cytochrome P450 2D6 (Homo sapiens, UniProt P10635); experiment: Inhibition of CYP2D6 in human liver microsomes preincubated for 10 mins followed by NADPH addition measured after 10 mins by LC-MS/MS analysis; assay type: ADME
Cytochrome P450 3A4 = Cytochrome P450 3A4 (Homo sapiens, UniProt P08684); experiment: Inhibition of CYP3A4 in human liver microsomes preincubated for 10 mins followed by NADPH addition measured after 10 mins by LC-MS/MS analysis; assay type: ADME
[22] = Protein binding in human plasma at 2 uM after 4 hrs by LC-MS/MS analysis; assay type: ADME, cell-free; conditions: read-out: PPB (converted)
[23] = Protein binding in Beagle dog plasma at 2 uM after 4 hrs by LC-MS/MS analysis; assay type: ADME, cell-free, Canis lupus familiaris; conditions: read-out: PPB (converted)
[24] = Protein binding in Sprague-Dawley rat plasma at 2 uM after 4 hrs by LC-MS/MS analysis; assay type: ADME, cell-free; conditions: read-out: PPB (converted)

Cytochrome P450 2C9, sequence (P11712 whole entry): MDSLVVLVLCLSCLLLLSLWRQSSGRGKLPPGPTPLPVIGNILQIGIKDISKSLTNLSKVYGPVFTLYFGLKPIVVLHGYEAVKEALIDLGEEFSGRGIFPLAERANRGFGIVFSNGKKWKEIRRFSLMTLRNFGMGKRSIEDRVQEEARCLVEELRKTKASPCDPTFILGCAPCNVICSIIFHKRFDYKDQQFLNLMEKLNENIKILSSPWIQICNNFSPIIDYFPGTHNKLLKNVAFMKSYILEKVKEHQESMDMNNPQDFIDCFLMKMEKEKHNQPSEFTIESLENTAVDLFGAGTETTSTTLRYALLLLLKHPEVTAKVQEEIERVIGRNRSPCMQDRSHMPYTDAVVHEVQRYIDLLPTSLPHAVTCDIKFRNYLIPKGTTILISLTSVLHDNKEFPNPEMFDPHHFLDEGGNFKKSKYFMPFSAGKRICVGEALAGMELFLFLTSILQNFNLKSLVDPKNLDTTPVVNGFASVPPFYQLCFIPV
Cytochrome P450 2C19, sequence (P33261 whole entry): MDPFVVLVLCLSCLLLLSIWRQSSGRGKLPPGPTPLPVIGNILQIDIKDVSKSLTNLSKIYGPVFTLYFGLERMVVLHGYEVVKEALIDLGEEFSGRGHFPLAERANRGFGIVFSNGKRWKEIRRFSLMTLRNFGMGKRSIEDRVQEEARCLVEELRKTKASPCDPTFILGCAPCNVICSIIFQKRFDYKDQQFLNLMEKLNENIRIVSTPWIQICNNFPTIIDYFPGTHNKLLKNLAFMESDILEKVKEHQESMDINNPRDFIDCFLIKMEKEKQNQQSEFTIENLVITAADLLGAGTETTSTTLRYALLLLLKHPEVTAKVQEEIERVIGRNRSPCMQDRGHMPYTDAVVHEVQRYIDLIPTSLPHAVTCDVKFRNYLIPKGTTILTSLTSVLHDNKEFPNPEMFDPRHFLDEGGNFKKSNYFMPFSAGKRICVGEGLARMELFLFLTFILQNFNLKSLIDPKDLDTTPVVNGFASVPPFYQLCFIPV
Cytochrome P450 2D6, sequence (P10635 whole entry): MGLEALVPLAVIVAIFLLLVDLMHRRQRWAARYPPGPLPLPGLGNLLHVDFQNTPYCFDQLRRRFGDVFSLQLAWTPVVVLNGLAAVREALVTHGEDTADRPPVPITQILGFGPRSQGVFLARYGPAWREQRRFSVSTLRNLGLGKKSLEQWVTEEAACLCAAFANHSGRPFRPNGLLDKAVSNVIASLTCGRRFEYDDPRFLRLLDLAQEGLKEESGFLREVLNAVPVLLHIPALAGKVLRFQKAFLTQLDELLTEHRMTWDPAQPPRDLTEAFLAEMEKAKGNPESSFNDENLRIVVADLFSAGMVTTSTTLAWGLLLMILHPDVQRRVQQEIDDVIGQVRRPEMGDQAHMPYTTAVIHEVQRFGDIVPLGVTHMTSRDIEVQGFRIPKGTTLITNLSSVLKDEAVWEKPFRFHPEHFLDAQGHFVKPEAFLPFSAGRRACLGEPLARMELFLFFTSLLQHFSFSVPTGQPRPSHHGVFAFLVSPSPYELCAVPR
Cytochrome P450 3A4, sequence (P08684 whole entry): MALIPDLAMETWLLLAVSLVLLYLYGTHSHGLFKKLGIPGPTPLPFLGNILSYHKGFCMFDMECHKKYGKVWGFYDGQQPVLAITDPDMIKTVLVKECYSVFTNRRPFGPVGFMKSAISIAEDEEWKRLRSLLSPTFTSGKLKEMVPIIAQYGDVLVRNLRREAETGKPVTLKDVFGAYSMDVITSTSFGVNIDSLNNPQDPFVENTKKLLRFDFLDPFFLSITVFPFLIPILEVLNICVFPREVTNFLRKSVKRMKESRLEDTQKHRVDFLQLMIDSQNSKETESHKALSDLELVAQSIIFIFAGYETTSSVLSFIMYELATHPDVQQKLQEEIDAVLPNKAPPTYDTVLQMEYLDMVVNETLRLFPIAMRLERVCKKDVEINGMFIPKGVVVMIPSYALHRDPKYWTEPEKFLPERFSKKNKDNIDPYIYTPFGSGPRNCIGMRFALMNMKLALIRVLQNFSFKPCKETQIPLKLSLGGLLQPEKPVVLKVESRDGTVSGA

Compound: COc1cc2ncnc(Nc3ccc(F)c(Cl)c3)c2cc1OCCCN1CCOCC1 [GEFITINIB]
- Activity (Mus musculus [1]): Non-Toxic

Compound: Nc1ccn([C@@H]2O[C@H](CO)[C@@H](O)C2(F)F)c(=O)n1 [GEMCITABINE]
- Activity (Mus musculus [2]): Non-Toxic

Compound: CC(C)(C)c1[nH]cnc1/C=c1\[nH]c(=O)/c(=C/c2ccccc2)[nH]c1=O [PLINABULIN]
- remaining at 5 min, 1 µM [3]: 95.5%
- remaining at 10 min, 1 µM [4]: 97.7%
- remaining at 20 min, 1 µM [5]: 98.2%
- remaining at 40 min, 1 µM [6]: 99%
- remaining at 1 h, 1 µM [7]: 103%
- remaining at 1.5 h, 1 µM [8]: 110%
- remaining at 2 h, 1 µM [9]: 109%
- Stability [10]: 77.21%
- Stability [11]: 65.58%
- remaining at 20 min, 50 µM [12]: 63.5%
- remaining at 40 min, 50 µM [13]: 56.6%
- remaining at 1 h, 50 µM [14]: 44.8%
- remaining at 1.5 h, 50 µM [15]: 41.1%
- remaining at 2 h, 50 µM [16]: 29.9%
- remaining at 2.5 h, 50 µM [17]: 29.9%
- Stability [18]: 29.64%
- Stability [19]: 34.94%
- t1/2 [20]: 59.34 min
- microsomal CLint at 50 µM [21]: 23.4 µL/min/mg
- IC50 (Cytochrome P450 1A2): 1.24 µM
- IC50 (Cytochrome P450 2C9): 0.53 µM
- IC50 (Cytochrome P450 2C19): 4.23 µM
- IC50 (Cytochrome P450 2D6): > 50 µM
- IC50 (Cytochrome P450 3A4): > 50 µM
- fraction unbound at 4 h, 2 µM [22]: 0.018
- fraction unbound at 4 h, 2 µM [23]: 0.028
- fraction unbound at 4 h, 2 µM [24]: 0.039
